Results: US20240294572A1, “Antimicrobial Peptides” (priority 2021, published 2024)
Residues, ends and D or L forms follow the SMILES beside them. *: point of attachment. Decanoyl = CCCCCCCCCC(=O)*

Tests used:
Test in all cases: Mass spectrometry of mouse plasma proteins bound to bead-immobilized peptide
Format in all cases: binding
Conditions in all cases: intensity bound to L-form / D-form of C10-KR8
[1] = target: T1, Apolipoprotein A-I (Q00623) (Mus musculus, UniProt Q00623)
T1 construct: incubated with 5% mouse plasma; from tissue; host or cells: mouse plasma (5%)
T1 sequence (Q00623 19-264): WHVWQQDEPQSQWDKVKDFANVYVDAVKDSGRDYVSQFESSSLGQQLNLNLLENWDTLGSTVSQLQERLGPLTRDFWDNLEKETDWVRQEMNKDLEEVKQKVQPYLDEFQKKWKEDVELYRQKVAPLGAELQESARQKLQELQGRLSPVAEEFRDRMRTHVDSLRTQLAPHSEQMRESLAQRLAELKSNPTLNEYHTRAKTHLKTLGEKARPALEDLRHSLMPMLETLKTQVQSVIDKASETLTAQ
Description: (§1) Dynabeads M-370 amine (2×10^9 beads/mL, 50 μL; Thermo Fisher Scientific) were washed 3 times in sterile PBS (1 mL; GIBCO) and reacted with a bifunctional SM(PEG)4 cross-linker (5 mg/mL in DMSO) containing N-hydroxysuccinimide (NHS) ester and maleimide functional groups. A stable covalent bond between the amino group of beads and the NHS ester of the cross-linker was formed in PBS at pH 7.2 at room temperature for 24 hours with shaking at 80 rpm. The beads were then washed six times with PBS to remove nonreacted cross-linker. Next, peptide C10-KR8 (with a cysteine at the N-terminus) at 5 mg/mL was reacted with the free maleimide group in PBS for 24 hours at room temperature with shaking at 80 rpm. Another round of washing was conducted to remove the nonreacted peptides. Both the L-and D-forms of the peptide were coupled in the same manner. A portion of the beads without peptide coupling was saved as a control.
(§2) For serum binding experiments, the beads were resuspended in 500 μL of PBS; 200-μL aliquots of the coated and control dynabead were incubated with 5% mouse plasma for 18 hours at 37° C. After binding, the beads were washed six times with PBS to remove unbound proteins. Finally, the beads were suspended in 50 μL of PBS for mass spectrophotometric analysis to identify peptide-binding partners.
(§3) The samples were reduced by 10 mM dithiothreitol (DTT) and incubated for 30 minutes at 56° C. and back to room temperature. A final concentration of 50 mM iodoacetamide was added to alkylate free cysteines followed by further incubation for 20 min in the dark. Bound proteins were enzymatically digested by trypsin (4 μL of 0.5 μg/mL) overnight. A 60 […] portion was transferred to a new Eppendorf® tube and dried for 2 hours. The samples were then dissolved in 20 μL of 2% acetonitrile with 0.1% formic acid before being loaded to Q-tip columns (Pepclean, C18 spin column). Column was activated by pipetting in and out (4× times), 10 μL of 70% acetonitrile with 0.1% formic acid, and equilibrating with the same volume of 2% acetonitrile with 0.1% formic acid. Binding of the samples was done by mixing more than 10 × times, followed by washing in the same buffer (2% acetonitrile with 0.1% formic acid). The bound peptides were then eluted with 20 μL of 70% acetonitrile with 0.1% formic acid. Samples were subjected to LC-MS analysis after being suspended in the desired buffer.
(§4) Extracted peptides were resuspended in 2% acetonitrile (ACN) and 0.1% formic acid (FA) and loaded onto trap column Acclaim™ PepMap™ 100 75 μm×2 cm C18 LC Columns (Thermo Scientific) at a flow rate of 4 μL/minute. These were then separated with a Thermo RSLC UltiMate™ 3000 on a Thermo Easy-Spray PepMap™ M RSLC C18 75 μm×50 cm C-18 2 μm column (Thermo Scientific) with a step gradient of 4-25% solvent B (0.1% FA in 80% ACN) from 10 to 37 minutes and 25-45% solvent B for 37-46 minutes at 300 nL/min and 50° C. with a 70 minute total run time. Eluted peptides were analyzed by a Thermo Orbitrap Fusion™ Lumos™ Tribrid™ (Thermo Scientific) mass spectrometer in a data dependent acquisition mode. A survey full scan MS (from m/z 350-1800) was acquired in the orbitrap with a resolution of 120000. The AGC target for MS1 was set as 4×10^5 and the ion filling time set as 100 ms. The most intense ions with charge state 2-6 were isolated in 3 second cycle and fragmented using HCD fragmentation with 40% normalized collision energy and detected at a mass resolution of 30000 at 200 m/z. The AGC target for MS/MS was set as 5×10^4 and ion filling time set 60 ms dynamic exclusion was set for 30 seconds with a 10 ppm mass window. Protein identification was performed by searching MS/MS data against the Swiss-Prot mouse protein database. The search was set up for full tryptic peptides with a maximum of two missed cleavage sites. Acetylation of protein N-terminus and oxidized methionine were included as variable modifications, and carbamidomethylation of cysteine was set as fixed modification. […]

[2] = target: T2, Apolipoprotein A-IV (P06728) (Mus musculus, UniProt P06728)
T2 construct: incubated with 5% mouse plasma; from tissue; host or cells: mouse plasma (5%)
T2 sequence (P06728 21-395): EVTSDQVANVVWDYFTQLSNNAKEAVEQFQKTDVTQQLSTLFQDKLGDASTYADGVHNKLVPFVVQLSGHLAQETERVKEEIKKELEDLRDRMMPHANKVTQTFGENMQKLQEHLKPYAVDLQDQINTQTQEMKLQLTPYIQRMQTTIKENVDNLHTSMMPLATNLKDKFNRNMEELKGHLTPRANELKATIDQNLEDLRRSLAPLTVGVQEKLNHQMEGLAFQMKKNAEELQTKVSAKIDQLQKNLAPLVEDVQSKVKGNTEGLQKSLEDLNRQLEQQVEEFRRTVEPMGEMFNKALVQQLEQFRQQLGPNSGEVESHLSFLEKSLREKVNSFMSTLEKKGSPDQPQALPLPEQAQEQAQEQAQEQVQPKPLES
Description: as §1, §2, §3, §4

[3] = target: T3, Apolipoprotein C-I (P34928) (Mus musculus, UniProt P34928)
T3 construct: incubated with 5% mouse plasma; from tissue; host or cells: mouse plasma (5%)
T3 sequence (P34928 27-88): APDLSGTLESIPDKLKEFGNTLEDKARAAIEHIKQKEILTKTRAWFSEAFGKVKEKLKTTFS
Description: as §1, §2, §3, §4

[4] = target: T4, Apolipoprotein E (P08226) (Mus musculus, UniProt P08226)
T4 construct: incubated with 5% mouse plasma; from tissue; host or cells: mouse plasma (5%)
T4 sequence (P08226 19-311): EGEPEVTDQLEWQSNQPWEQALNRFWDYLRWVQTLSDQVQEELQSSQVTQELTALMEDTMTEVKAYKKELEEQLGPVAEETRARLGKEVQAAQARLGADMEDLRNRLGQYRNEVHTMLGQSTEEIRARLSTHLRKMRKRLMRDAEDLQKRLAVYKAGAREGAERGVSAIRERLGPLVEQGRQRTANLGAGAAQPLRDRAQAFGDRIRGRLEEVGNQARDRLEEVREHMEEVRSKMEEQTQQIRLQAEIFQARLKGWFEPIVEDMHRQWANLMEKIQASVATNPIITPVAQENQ
Description: as §1, §2, §3, §4

[5] = target: T5, Serum albumin (P07724) (Mus musculus, UniProt P07724)
T5 construct: incubated with 5% mouse plasma; from tissue; host or cells: mouse plasma (5%)
T5 sequence (P07724 25-608): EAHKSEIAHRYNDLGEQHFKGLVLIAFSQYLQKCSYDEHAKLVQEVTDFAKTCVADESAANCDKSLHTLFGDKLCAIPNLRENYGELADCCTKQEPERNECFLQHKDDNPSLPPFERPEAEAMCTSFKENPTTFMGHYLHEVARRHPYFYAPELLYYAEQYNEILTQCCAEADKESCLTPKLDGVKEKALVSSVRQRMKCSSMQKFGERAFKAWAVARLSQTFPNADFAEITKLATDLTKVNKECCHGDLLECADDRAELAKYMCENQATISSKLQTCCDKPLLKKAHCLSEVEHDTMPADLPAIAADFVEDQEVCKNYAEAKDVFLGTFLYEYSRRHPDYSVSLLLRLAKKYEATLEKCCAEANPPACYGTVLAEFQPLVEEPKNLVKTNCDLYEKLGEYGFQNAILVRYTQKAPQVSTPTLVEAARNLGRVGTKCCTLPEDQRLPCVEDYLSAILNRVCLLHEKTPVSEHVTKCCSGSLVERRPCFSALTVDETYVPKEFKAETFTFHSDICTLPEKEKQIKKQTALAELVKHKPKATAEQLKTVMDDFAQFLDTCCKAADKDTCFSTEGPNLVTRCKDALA
Description: as §1, §2, §3, §4

For CCCCCCCCCC(=O)N[C@@H](CCCCN)C(=O)N[C@@H](CCCNC(=N)N)C(=O)N[C@H](C(=O)N[C@@H](Cc1c[nH]c2ccccc12)C(=O)N[C@@H](CCC(N)=O)C(=O)N[C@@H](CCCNC(=N)N)C(=O)N[C@H](C(=O)N[C@@H](CCCCN)C(N)=O)[C@@H](C)CC)[C@@H](C)CC [Peptide C10-KR8] (Decanoyl-KRIWQRIK-NH2), the “L/D Ratio, Apolipoprotein A-I” value [1] was 3.54, the “L/D Ratio, Apolipoprotein A-IV” value [2] was 2.89 and the “L/D Ratio, Apolipoprotein C-I” value [3] was 2.08. For the same compound, the “L/D Ratio, Apolipoprotein E” value [4] was 0.811 and the “L/D Ratio, Serum albumin” value [5] was 2.28.
